GI50 and TGI data for eight compounds are collected here from PubChem BioAssay (NCI).

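Five concentrations, 48 hours, 96-well plates. Here, GI50 denotes the concentration required for 50% inhibition of growth. TGI: concentration producing complete growth inhibition.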 Some results are limits rather than exact numbers.

Assay in all cases: NCI tumour cell line growth inhibition, 48 h
Assay [1] concerns OVCAR-4 ovarian.
Assay [2] relates to SF-268 CNS.
The subject of assay [3] is HCT-116 colon.
In assay [4] the test system is A498 renal.
Assay [5] deals with UACC-62 melanoma.
Assay [6] deals with SF-295 CNS.
Assay [7] relates to SK-MEL-28 melanoma.
For assay [8], the system named is IGROV1 ovarian.
Assay [9] deals with M14 melanoma.
Assay [10] concerns HCC-2998 colon.

As for `COc1cc2c(c(OC)c1OC)-c1ccc(N)c(=O)cc1[C@@H](NC(C)=O)CC2`, the GI50 was 0.0542 µM in [1]; 0.0339 µM in assay [2]; 0.0168 µM in [3]; 0.0297 µM in assay [4]; 0.0379 µM in [5]; 0.0339 µM in [6]. In addition, the GI50 in [7] is over 100 µM; in [8] it was 0.0359 µM; in assay [9] it was 0.0208 µM; in assay [10], 0.0279 µM. Further, the TGI in assay [1], in assay [2], in assay [3], in assay [5] and in assay [7] was over 100 µM throughout.
For the compound `O=C(O)C1C2CCC(O2)C1C(=O)N1CCCCC1` (centres undefined), the TGI in [1] came out at 24.4 µM; in assay [2], 28.9 µM; in [3] it was 22.6 µM; in assay [4], 4.46 µM; in [5], 20.4 µM; in assay [6], 23.9 µM. For the same compound, the TGI in assay [7] worked out at 19.5 µM; in assay [8], 74.6 µM; in assay [9], 26.2 µM; in assay [10] it was 11.9 µM.
Consider `Cc1c(S(C)(=O)=O)c(-c2cc(F)cc(N3CCN(c4ccc(NS(=O)(=O)c5ccc(N[C@H](CCN6CCC(C(=O)OCCCP(=O)(O)O)CC6)CSc6ccccc6)c(S(=O)(=O)C(F)(F)F)c5)cc4)CC3)c2)c(-c2ccc(Cl)cc2)n1C(C)C`, for which the GI50 in [1], in assay [2], in assay [3], in assay [4], in assay [5] and in assay [6] was over 100 µM in each case. The GI50 in assay [7] was over 100 µM; in assay [8], over 100 µM; in assay [9] it was over 100 µM; in assay [10] it was 2.13 µM. In addition, the TGI in assay [1], in [2], in assay [3], in [4], in assay [5] and in assay [6] was over 100 µM throughout. The TGI in [7], in assay [8], in assay [9] and in assay [10] was over 100 µM each time.
Turning to `C=C(CCCCCCCCC)CC(=O)SCCNC(=O)CCNC(=O)C(O)C(C)(C)COP(=O)(O)OP(=O)(O)OCC1OC(n2cnc3c(N)ncnc32)C(O)C1OP(=O)(O)O` (centres undefined), the TGI is over 100 µM in [1]; 15.3 µM in assay [2]; over 100 µM in [3]; over 100 µM in [4]; 46.1 µM in assay [5]; over 100 µM in [6]. The TGI was 21.6 µM in assay [7], over 100 µM in [8], 65 µM in [9] and over 100 µM in assay [10].
For `COc1ccc2c(c1)C(=O)c1c-2n(CCCN=[N+]=[N-])c(=O)c2cc(N(C)C)ccc12`, the GI50 is over 100 µM in assay [1]; 22.3 µM in [2]; 77.3 µM in assay [3]; over 100 µM in [4]; over 100 µM in [5]; over 100 µM in [6]. For the same compound, the GI50 in assay [7], in [8], in [9] and in [10] was over 100 µM each time. Besides, the TGI in assay [1], in [2], in assay [3], in [4], in assay [5] and in [6] was over 100 µM each time. For the same compound, the TGI in assay [7], in [8], in assay [9] and in [10] was over 100 µM throughout.
On to `CCc1n(Cc2ccc3ccccc3n2)cc[n+]1Cc1ccc2ccccc2n1`, for which the GI50 was 0.0378 µM in assay [1]; 0.453 µM in assay [2]; 1.35 µM in [3]; 0.303 µM in assay [4]; 0.186 µM in assay [5]; 2.81 µM in [6]. Moreover, the GI50 in [7] was 0.196 µM; in assay [8], 0.214 µM; in assay [9], 2.93 µM; in [10], 0.227 µM. In addition, the TGI in assay [1] was 10.4 µM; in assay [2] it was 14.2 µM; in assay [3] it was 29.7 µM; in [4], 9.38 µM; in assay [5] it was 3.05 µM; in assay [6], 20.1 µM. Besides, the TGI in [7] turned out to be 14.7 µM; in assay [8], 16.7 µM; in assay [9] it was 21.7 µM; in [10] it was 14.4 µM.
With `CCn1c(C(=O)N(C2CC2)C2CC2)cc2c3c(ncn3C)c(Nc3cc(C)n(C)n3)nc21`, the GI50 in assay [1], in [2], in [3], in [5], in assay [6] and in [7] was over 100 µM throughout. For the same compound, the values for the GI50 in assay [8], in assay [9] and in assay [10] were 7.62 µM, over 100 µM and over 100 µM, respectively. Besides, the TGI in assay [1], in assay [2], in assay [3], in assay [4], in assay [5] and in [6] was over 100 µM each time. In addition, the TGI in assay [7], in assay [8], in assay [9] and in assay [10] was over 100 µM throughout.
As to `O=C1C(c2c[nH]c3ccccc23)=C(c2c[nH]c3ccccc23)C(=O)N1O`, the GI50 was over 25 µM in assay [1]; over 25 µM in [2]; over 25 µM in assay [3]; 8.1 µM in [4]; 24.6 µM in assay [5]; over 25 µM in [6]. For the same compound, the GI50 in [7], in [8], in assay [9] and in [10] was over 25 µM each time. In addition, the TGI in assay [1], in assay [2], in assay [3], in assay [4], in assay [5] and in assay [6] was over 25 µM in each case. Also, the TGI in [7], in [8], in assay [9] and in assay [10] was over 25 µM in each case.
